Experimental data as given in patent EP0349681A1, “Methods for treating hydrocarbon recovery operations and industrial waters” (PETROLITE CORPORATION, priority 1988, dated 1990).

Assays:
[1] = CO2 brine sparge test for sweet corrosive systems; details: 50 ppm active component, 24 hour test, 3.5 hours precorrosion, by weight loss
Description: The C02 brine sparge test is a reliable, quick test to screen compounds as corrosion inhibitors in "sweet" corrosive systems. A laboratory brine solution is sparged with stirring with 99.9% grade C02 for about one hour before immersing cleaned and weighed corrosion coupons. A M-1010 Pair@ meter was used to monitor the corrosion rate of each test cell. After one to two hours the corrosion rate reached a "steady state", but a precorrosion period of 3.5 hours was used for consistency before the test inhibitor was added. The precorroding period in the […] brine solution is very important. This provides a precor- roded test surface thereby minimizing surface preparation variations and also provides at least a minimal corrosion product layer without inhibitor in it against which the test inhibitor must work. This step is important, because in the equipment, the inhibitor is only rarely used from day one and then it is used on rusted steel and not freshly sand-blasted surfaces.
The inhibitors were injected below the brine surface at 50 ppm based on the active component. The 24 hour test period was monitored with a M-1010 PAIR meter as a "back-up", but the corrosion rates and percent protection were determined by weight loss measurements.

Sulfate Reducers = test: standard laboratory biocide screening, mixed culture; assay type: cell-based; details: 800 ppm, 24 hours exposure, extinction dilution in modified Sulfate API broth, 35° C
Description: (§1) The compound of Example 4 was tested for efficacy using a standard laboratory screening procedure. The compounds were tested against a mixed culture of aerobic and anaerobic bacteria, including sulfate reducers. The test medium consisted of aged artificial sea water with 0.1 gms/liter of nutrient broth added. The medium was purged with nitrogen to remove oxygen and inoculated with 10 mis/liter of a mixed culture of aerobic and anaerobic bacteria obtained from oilfield waters. Aliquots (50 ml) were dispensed into sterile, nitrogen-filled serum vials. Concentrations of the test compounds were prepared by adding the appropriate amount of a 5% solution of the compound to 50 mls of test medium. After 24 hours, exposure levels of aerobic, anaerobic and sulfate reducing bacteria were enumerated.

Aerobes = test: as above; assay type: cell-based; details: 24 hours exposure, Standard Plate Count, Difco Plate Count Agar, 35° C, read-out: Aerobes (% killed)
Description: as §1

Anaerobes = test: as above; assay type: cell-based; details: 800 ppm, 24 hours exposure, extinction dilution in Difco Fluid Thioglycollate broth, 35° C
Description: as §1

Row | SMILES | Percent Protect [1] | also measured
1 | CCCCN(CCCC)C(=S)S [Example 1] | 92 | 
2 | S=C(S)NCCCCC(CCCNC(=S)S)CNC(=S)S (centres unmarked) [Example 4] | 99 | Surviving Bacteria/ml Sulfate Reducers (Sulfate Reducers): 10 mL⁻¹; killing at 800 ppm (Aerobes): 99%; Surviving Bacteria/ml Anaerobes (Anaerobes): 10 mL⁻¹
3 | S=C(S)NCCNC(=S)S [Example 2] | 85 | 
4 | S=C(S)NCCN(CCNC(=S)S)C(=S)S [Example 7] | 92 | 
5 | S=C(S)NCCCN1CCN(CCCNC(=S)S)CC1 [Example 3] | 96 | 
6 | S=C(S)NCCN(CCN(CCN(CCNC(=S)S)C(=S)S)C(=S)S)C(=S)S [Example 5] | 97 | 
7 | S=C(S)NCCCCCCN(CCCCCCNC(=S)S)C(=S)S [Example 6] | 96 | 
8 | CCCCCCCCN(CCCNC(=S)S)C(=S)S [Example 8] | 96 | 
